Results as given in patent US7592373B2 (Boehringer Ingelheim International GmbH, priority 2003, dated 2009).

In the case of C[C@@H]1C[C@H](C)CN(Cc2ccc(/C=C/C(=O)Nc3ccc(-c4ccc(Cl)cc4)cc3)cc2)C1 [Example 5.3, (E)-N-(4′-chlorobiphenyl-4-yl)-3-[4-(cis-3,5-dimethylpiperidin-1-ylmethyl)phenyl]acrylamide], the melting point is reported as 217 to 218 °C. In the case of COC1CCN(Cc2ccc(/C=C/C(=O)Nc3ccc(-c4ccc(Cl)cc4)cc3)cc2)CC1 [Example 5.4, (E)-N-(4′-chlorobiphenyl-4-yl)-3-[4-(4-methoxypiperidin-1-ylmethyl)phenyl]acrylamide], the melting point is reported as 205 to 206 °C. NC(=O)C1CCN(Cc2ccc(/C=C/C(=O)Nc3ccc(-c4ccc(Cl)cc4)cc3)cc2)CC1 [Example 5.6, 1-{4-[(E)-2-(4′-chlorobiphenyl-4-ylcarbamoyl)vinyl]benzyl}piperidine-4-carboxylic acid amide] showed a melting point of 254 to 255 °C. Work on CN(Cc1ccc(/C=C/C(=O)Nc2ccc(-c3ccc(Cl)cc3)cc2)cc1)C1CCOCC1 [Example 5.7, (E)-N-(4′-chlorobiphenyl-4-yl)-3-(4-{[methyl-(tetrahydropyran-4-yl)amino]methyl}phenyl)acrylamide] yielded a melting point of 196 to 197 °C. Work on O=C(/C=C/c1ccc(CN2CCC(CO)CC2)cc1)Nc1ccc(-c2ccc(Cl)cc2)cc1 [Example 5.8, (E)-N-(4′-chlorobiphenyl-4-yl)-3-[4-(4-hydroxymethylpiperidin-1-ylmethyl)phenyl]acrylamide] yielded a melting point of 190 to 191 °C. For O=C(/C=C/c1ccc(CN2CC[C@H](O)C2)cc1)Nc1ccc(-c2ccc(Cl)cc2)cc1 [Example 5.9, (E)-N-(4′-chlorobiphenyl-4-yl)-3-[4-((S)-3-hydroxypyrrolidin-1-ylmethyl)phenyl]acrylamide], the melting point was 178 to 179 °C. With O=C(/C=C/c1ccc(CN2CCCC2)cc1)Nc1ccc(-c2ccc(Cl)cc2)cc1 [Example 5.13, (E)-N-(4′-chlorobiphenyl-4-yl)-3-(4-pyrrolidin-1-ylmethylphenyl)acrylamide] the melting point was 219 °C. Work on COCCN(C)Cc1ccc(/C=C/C(=O)Nc2ccc(-c3ccc(Cl)cc3)cc2)cc1 [Example 5.14] yielded a melting point of 222 to 223 °C. CN(Cc1ccc(/C=C/C(=O)Nc2ccc(-c3ccc(Cl)cc3)cc2)cc1)CC1CC1 [Example 5.17, (E)-N-(4′-chlorobiphenyl-4-yl)-3-{4-[(cyclopropylmethylmethylamino)methyl]phenyl}acrylamide] gave a melting point of 246 to 247 °C. Compound O=C(/C=C/c1ccc(CNCC2CCCCC2)cc1)Nc1ccc(-c2ccc(Cl)cc2)cc1 [Example 5.21, (E)-N-(4′-chlorobiphenyl-4-yl)-3-{4-[(cyclohexylmethylamino)methyl]phenyl}acrylamide] has a melting point of 262 to 263 °C. Compound CC1CN(Cc2ccc(/C=C/C(=O)Nc3ccc(-c4ccc(Cl)cc4)cc3)cc2)CC(C)O1 (stereo not shown) [Example 5.23, (E)-N-(4′-chlorobiphenyl-4-yl)-3-[4-(2,6-dimethylmorpholin-4-ylmethyl)phenyl]acrylamide] has a melting point of 212 to 213 °C. O=C(/C=C/c1ccc(CN2CCC3(CCCC3)CC2)cc1)Nc1ccc(-c2ccc(Cl)cc2)cc1 [Example 5.25, (E)-3-[4-(8-azaspiro[4.5]dec-8-ylmethyl)phenyl]-N-(4′-chlorobiphenyl-4-yl)acrylamide] gave a melting point of 250 °C. Work on COCCN(Cc1ccc(/C=C/C(=O)Nc2ccc(-c3ccc(Cl)cc3)cc2)cc1)CC(C)(C)O [Example 5.27, (E)-N-(4′-chlorobiphenyl-4-yl)-3-(4-{[(2-hydroxy-2-methylpropyl)-(2-methoxyethyl)amino]methyl}phenyl)acrylamide] yielded a melting point of 125 to 126 °C. With O=C(/C=C/c1ccc(CN2CCC(N3CCCCC3)C2)cc1)Nc1ccc(-c2ccc(Cl)cc2)cc1 (stereo not shown) [Example 5.28, (E)-N-(4′-chlorobiphenyl-4-yl)-3-[4-(3-piperidin-1-ylpyrrolidin-1-ylmethyl)phenyl]acrylamide] the melting point was 209 to 210 °C. Compound CC1CCC(N(C)Cc2ccc(/C=C/C(=O)Nc3ccc(-c4ccc(Cl)cc4)cc3)cc2)CC1 (stereo not shown) [Example 5.29, (E)-N-(4′-chlorobiphenyl-4-yl)-3-(4-{[methyl-(4-methylcyclohexyl)amino]methyl}phenyl)acrylamide] has a melting point of 227 to 258 °C. For O=C(/C=C/c1ccc(CNC2CCCCC2)cc1)Nc1ccc(-c2ccc(Cl)cc2)cc1 [Example 5.33, (E)-N-(4′-chlorobiphenyl-4-yl)-3-(4-cyclohexylaminomethylphenyl)acrylamide], the melting point was 247 to 248 °C. In the case of CN(Cc1ccc(/C=C/C(=O)Nc2ccc(-c3ccc(Cl)cc3)cc2)cc1)C1CCN(C(=O)OC(C)(C)C)CC1 [Example 5.35, tert-butyl 4-({-[(E)-2-(4′-chlorobiphenyl-4-ylcarbamoyl)vinyl]benzyl}methylamino)piperidine-1-carboxylate], the melting point is reported as 168 to 169 °C. In the case of O=C(/C=C/c1ccc(CN(CCO)C2CCCCC2)cc1)Nc1ccc(-c2ccc(Cl)cc2)cc1 [Example 5.38, (E)-N-(4′-chlorobiphenyl-4-yl)-3-(4-{[cyclohexyl-(2-hydroxyethyl)amino]methyl}phenyl)acrylamide], the melting point is reported as 178 to 179 °C. COc1ccc(-c2ccc(NC(=O)CCc3ccc(CN4CCCC4)cc3)cc2)cc1 [Example 6.1, N-(4′-methoxybiphenyl-4-yl)-3-(4-pyrrolidin-1-ylmethylphenyl)propionamide] gave a melting point of 185 to 188 °C. CC1CCN(Cc2ccc(CCC(=O)Nc3ccc(-c4ccc(Cl)cc4)cc3)cc2)CC1 [Example 6.2, N-(4′-chlorobiphenyl-4-yl)-3-[4-(4-methylpiperidin-1-ylmethyl)phenyl]propionamide] gave a melting point of 150 to 151 °C. For COC1CCN(Cc2ccc(CCC(=O)Nc3ccc(-c4ccc(Cl)cc4)cc3)cc2)CC1 [Example 6.3, N-(4′-chlorobiphenyl-4-yl)-3-[4-(4-methoxypiperidin-1-ylmethyl)phenyl]propionamide], the melting point was 143 to 144 °C. With O=C(CCc1ccc(CN2CCOCC2)cc1)Nc1ccc(-c2ccc(Cl)cc2)cc1 [Example 6.4, N-(4′-chlorobiphenyl-4-yl)-3-(4-morpholin-4-ylmethylphenyl)propionamide] the melting point was 193 to 194 °C. With NC(=O)C1CCN(Cc2ccc(CCC(=O)Nc3ccc(-c4ccc(Cl)cc4)cc3)cc2)CC1 [Example 6.5, 1-{4-[2-(4′-chlorobiphenyl-4-ylcarbamoyl)ethyl]benzyl}piperidine-4-carboxylic acid amide] the melting point was 240 to 241 °C. For O=C(CCc1ccc(CN2CCC(CO)CC2)cc1)Nc1ccc(-c2ccc(Cl)cc2)cc1 [Example 6.6, N-(4′-chlorobiphenyl-4-yl)-3-[4-(4-hydroxymethylpiperidin-1-ylmethyl)phenyl]propionamide], the melting point was 185 to 186 °C. With O=C(CCc1ccc(CN2CC[C@H](O)C2)cc1)Nc1ccc(-c2ccc(Cl)cc2)cc1 [Example 6.7, N-(4′-chlorobiphenyl-4-yl)-3-[4-((S)-3-hydroxypyrrolidin-1-ylmethyl)phenyl]propionamide] the melting point was 171 to 172 °C. O=C(CCc1ccc(CN2CCC[C@@H]2CO)cc1)Nc1ccc(-c2ccc(Cl)cc2)cc1 [Example 6.8, N-(4′-chlorobiphenyl-4-yl)-3-[4-((R)-2-hydroxymethylpyrrolidin-1-ylmethyl)phenyl]propionamide] showed a melting point of 156 to 157 °C. For CC1(O)CCN(Cc2ccc(CCC(=O)Nc3ccc(-c4ccc(Cl)cc4)cc3)cc2)CC1 [Example 6.9, N-(4′-chlorobiphenyl-4-yl)-3-[4-(4-hydroxy-4-methylpiperidin-1-ylmethyl)phenyl]propionamide], the melting point was 192 °C. With O=C(CCc1ccc(CN2CCCC2)cc1)Nc1ccc(-c2ccc(Cl)cc2)cc1 [Example 6.11, N-(4′-chlorobiphenyl-4-yl)-3-(4-pyrrolidin-1-ylmethylphenyl)propionamide] the melting point was 183 to 184 °C. For CN(Cc1ccc(CCC(=O)Nc2ccc(-c3ccc(Cl)cc3)cc2)cc1)C1CCOCC1 [Example 6.12, N-(4′-chlorobiphenyl-4-yl)-3-(4-{[methyl-(tetrahydropyran-4-yl)amino]methyl}phenyl)propionamide], the melting point was 167 to 173 °C. Compound CN(Cc1ccc(CCC(=O)Nc2ccc(-c3ccc(Cl)cc3)cc2)cc1)CC1CC1 [Example 6.13, N-(4′-chlorobiphenyl-4-yl)-3-{4-[(cyclopropylmethylmethylamino)methyl]phenyl}propionamide] has a melting point of 156 °C. Work on COCCN(Cc1ccc(CCC(=O)Nc2ccc(-c3ccc(Cl)cc3)cc2)cc1)CC(C)(C)O [Example 6.14, N-(4′-chlorobiphenyl-4-yl)-3-(4-{[(2-hydroxy-2-methylpropyl)-(2-methoxyethyl)amino]methyl}phenyl)propionamide] yielded a melting point of 108 to 109 °C. In the case of O=C(CCc1ccc(CNCC2CC2)cc1)Nc1ccc(-c2ccc(Cl)cc2)cc1 [Example 6.15, N-(4′-chlorobiphenyl-4-yl)-3-{4-[(cyclopropylmethylamino)methyl]phenyl}propionamide], the melting point is reported as 191 to 192 °C. Work on O=C(CCc1ccc(CN2CCN3CCCC3C2)cc1)Nc1ccc(-c2ccc(Cl)cc2)cc1 (stereo not shown) [Example 6.16, N-(4′-chlorobiphenyl-4-yl)-3-[4-(hexahydropyrrolo[1,2-a]pyrazin-2-ylmethyl)phenyl]propionamide] yielded a melting point of 177 °C. With COCCN(C)Cc1ccc(CCC(=O)Nc2ccc(-c3ccc(Cl)cc3)cc2)cc1 [Example 6.17, N-(4′-chlorobiphenyl-4-yl)-3-(4-{[(2-methoxyethyl)methylamino]methyl}phenyl)propionamide] the melting point was 138 °C. Compound CN(Cc1ccccc1)Cc1ccc(CCC(=O)Nc2ccc(-c3ccc(Cl)cc3)cc2)cc1 [Example 6.18, 3-{4-[(benzylmethylamino)methyl]phenyl}-N-(4′-chlorobiphenyl-4-yl)propionamide] has a melting point of 174 to 175 °C. CN(Cc1ccc(CCC(=O)Nc2ccc(-c3ccc(Cl)cc3)cc2)cc1)CC1CCOCC1 [Example 6.19, N-(4′-chlorobiphenyl-4-yl)-3-(4-{[methyl-(tetrahydropyran-4-ylmethyl)amino]methyl}phenyl)propionamide] gave a melting point of 162 to 163 °C. Compound CN(CCOc1ccccc1)Cc1ccc(CCC(=O)Nc2ccc(-c3ccc(Cl)cc3)cc2)cc1 [Example 6.20, N-(4′-chlorobiphenyl-4-yl)-3-(4-{[methyl-(2-phenoxyethyl)amino]methyl}phenyl)propionamide] has a melting point of 122 to 124 °C.
